# Experimental data as given in article PMC11239830, “Synthetic macrolides overcoming MLSBK-resistant pathogens” (Cell Discovery, 2024).
# Like-named read-outs stand apart in the source and are kept apart here.
# Key:
# Test in all cases: MIC, broth microdilution
# S. pneumoniae = assay type: cell-based, Streptococcus pneumoniae
# Method: (§1) MICs were determined by the microdilution method according to the Clinical and Laboratory Standards Institute guidelines. […] Finally, the 96-well plates were incubated at 37 °C for 16–20 h to observe and record the results. […] The assay for MICs was replicated at least three times.
# S. pyogenes = assay type: cell-based, Streptococcus pyogenes
# Method: as §1
# H. influenzae = assay type: cell-based, Haemophilus influenzae
# Method: as §1
# S. aureus = assay type: cell-based, Staphylococcus aureus
# Method: as §1
# [1] = Streptococcus pneumoniae, ATCC49619, S. pneumoniae ATCC49619, Ery-S, read-out: MIC
# [2] = Streptococcus pneumoniae, S. pneumoniae 07P390, c-ermB, read-out: MIC
# [3] = Streptococcus pneumoniae, S. pneumoniae PU09, mef, read-out: MIC
# [4] = Streptococcus pyogenes, S. pyogenes 12-206, c-ermTR, read-out: MIC
# [5] = Haemophilus influenzae, ATCC49247, H. influenzae ATCC49247, Azi-S, read-out: MIC
# [6] = Staphylococcus aureus, S. aureus 15B196, c-ermB, read-out: MIC
# [7] = Staphylococcus aureus, S. aureus PU32, i-ermA, read-out: MIC
# [8] = Streptococcus pyogenes, S. pyogenes 01-968, i-ermTR (Table S5), read-out: MIC
# [9] = Streptococcus pyogenes, S. pyogenes 12-206, c-ermB (Table S5), read-out: MIC
SMILES,MIC (S. pneumoniae; [1]),MIC (S. pneumoniae; [2]),MIC (S. pneumoniae; [3]),MIC (S. pyogenes; [4]),MIC (H. influenzae; [5]),MIC (S. aureus; [6]),MIC (S. aureus; [7]),"MIC (S. pneumoniae; S. pneumoniae 07P390, c-ermB)","MIC (S. pneumoniae; S. pneumoniae ATCC49619, Ery-S)","MIC (S. pneumoniae; S. pneumoniae PU09, mef)","MIC (S. pyogenes; S. pyogenes 12-206, c-ermTR)","MIC (H. influenzae; H. influenzae ATCC49247, Azi-S)","MIC (S. aureus; S. aureus 15B196, c-ermB)","MIC (S. aureus; S. aureus PU32, i-ermA)","MIC (S. pyogenes; S. pyogenes 01-968, i-ermTR (Table S5))","MIC (S. pyogenes; S. pyogenes 12-206, c-ermB (Table S5))",MIC (S. pyogenes; [8]),MIC (S. pyogenes; [9])
CCC1OC(=O)C(C)C(OC(=O)NCCCCCC#Cc2ccc3c(=O)c(C(=O)O)cn(C4CC4)c3c2)C(C)C(OC2OC(C)CC(N(C)C)C2O)C(C)(OC)CC(C)C(=NOC)C(C)C2OC(=O)OC12C (centres unmarked) [57c],≤ 0.008 µg/mL,0.5 µg/mL,0.06 µg/mL,1 µg/mL,8 µg/mL,16 µg/mL,4 µg/mL,,,,,,,,,,,
CC[C@H]1OC(=O)[C@H](C)[C@@H](OC(=O)NCCCCCC#Cc2ccc3c(=O)c(C(=O)O)cn(C4CC4)c3c2)[C@H](C)[C@@H](O[C@@H]2O[C@H](C)C[C@H](N(C)C)[C@H]2O)[C@](C)(O)C[C@@H](C)CN(C)[C@H](C)[C@H]2OC(=O)O[C@@]21C [110c],,,,,,,,1 µg/mL,0.016 µg/mL,0.06 µg/mL,2 µg/mL,8 µg/mL,128 µg/mL,4 µg/mL,,,,
CC[C@H]1OC(=O)[C@H](C)[C@@H](OC(=O)NCCCOCCC#Cc2ccc3cc(C(=O)O)cnc3c2)[C@H](C)[C@@H](O[C@@H]2O[C@H](C)C[C@H](N(C)C)[C@H]2O)[C@](C)(OC)C[C@@H](C)C(=O)[C@H](C)[C@H]2NC(=O)O[C@@]21C [95j],1 µg/mL,> 256 µg/mL,8 µg/mL,128 µg/mL,128 µg/mL,> 256 µg/mL,64 µg/mL,,,,,,,,,,,
CC[C@H]1OC(=O)[C@H](C)[C@@H](OC(=O)NCCOCCC#Cc2ccc3c(c2)c(=O)c(C(=O)O)cn3C2CC2)[C@H](C)[C@@H](O[C@@H]2O[C@H](C)C[C@H](N(C)C)[C@H]2O)[C@](C)(O)C[C@@H](C)CN(C)[C@H](C)[C@H]2OC(=O)O[C@@]21C [116a],,,,,,,,512 µg/mL,4 µg/mL,8 µg/mL,512 µg/mL,64 µg/mL,512 µg/mL,128 µg/mL,,,,
CC[C@H]1OC(=O)[C@H](C)[C@@H](OC(=O)NCCCCCCC#Cc2ccc3c(=O)[nH]cnc3c2)[C@H](C)[C@@H](O[C@@H]2O[C@H](C)C[C@H](N(C)C)[C@H]2O)[C@](C)(OC)C[C@@H](C)C(=O)[C@H](C)[C@H]2NC(=O)O[C@@]21C [88k],,,,,,,,128 µg/mL,0.06 µg/mL,0.5 µg/mL,,64 µg/mL,,,1 µg/mL,32 µg/mL,,
CC[C@H]1OC(=O)[C@H](C)[C@@H](OC(=O)NCCCCCCC#Cc2ccc3c(=O)c(C(=O)O)cn(C4CC4)c3c2)[C@H](C)[C@@H](O[C@@H]2O[C@H](C)C[C@H](N(C)C)[C@H]2O)[C@](C)(OC)C[C@@H](C)C(=O)[C@H](C)[C@H]2NC(=O)O[C@@]21C [88c],≤ 0.008 µg/mL,,≤ 0.008 µg/mL,0.5 µg/mL,,8 µg/mL,2 µg/mL,,,,1 µg/mL,,4 µg/mL,1 µg/mL,,,,
CC[C@H]1OC(=O)[C@H](C)[C@@H](OC(=O)NCCCCCCC#Cc2ccc3c(=O)c4c(O)cc(O)cc4oc3c2)[C@H](C)[C@@H](O[C@@H]2O[C@H](C)C[C@H](N(C)C)[C@H]2O)[C@](C)(OC)C[C@@H](C)C(=O)[C@H](C)[C@H]2NC(=O)O[C@@]21C [88m],4 µg/mL,16 µg/mL,1 µg/mL,32 µg/mL,16 µg/mL,,,,,,,,,,,,16 µg/mL,32 µg/mL
CC[C@H]1OC(=O)[C@H](C)[C@@H](OC(=O)NCCCCCCC#Cc2ccc3c(=O)n(CC(=O)O)cnc3c2)[C@H](C)[C@@H](O[C@@H]2O[C@H](C)C[C@H](N(C)C)[C@H]2O)[C@](C)(OC)C[C@@H](C)C(=O)[C@H](C)[C@H]2NC(=O)O[C@@]21C [88l],0.25 µg/mL,256 µg/mL,0.25 µg/mL,256 µg/mL,256 µg/mL,,,,,,,,,,,,8 µg/mL,256 µg/mL
